Laboratory results as given in patent US8263606B2 (Xenon Pharmaceuticals Inc., priority 2008, dated 2012).

Experiments:
CYP3A4 = CYP3A4 (Homo sapiens, UniProt P08684); experiment: Cytochrome P450 (CYP450) Inhibition Assay, CYP3A4 (Vivid fluorescence, BOMCC substrate); settings: human, P450 Baculosomes (recombinant CYP3A4), probe BOMCC (Vivid substrate)
Chain of CYP3A4 (P08684 whole entry): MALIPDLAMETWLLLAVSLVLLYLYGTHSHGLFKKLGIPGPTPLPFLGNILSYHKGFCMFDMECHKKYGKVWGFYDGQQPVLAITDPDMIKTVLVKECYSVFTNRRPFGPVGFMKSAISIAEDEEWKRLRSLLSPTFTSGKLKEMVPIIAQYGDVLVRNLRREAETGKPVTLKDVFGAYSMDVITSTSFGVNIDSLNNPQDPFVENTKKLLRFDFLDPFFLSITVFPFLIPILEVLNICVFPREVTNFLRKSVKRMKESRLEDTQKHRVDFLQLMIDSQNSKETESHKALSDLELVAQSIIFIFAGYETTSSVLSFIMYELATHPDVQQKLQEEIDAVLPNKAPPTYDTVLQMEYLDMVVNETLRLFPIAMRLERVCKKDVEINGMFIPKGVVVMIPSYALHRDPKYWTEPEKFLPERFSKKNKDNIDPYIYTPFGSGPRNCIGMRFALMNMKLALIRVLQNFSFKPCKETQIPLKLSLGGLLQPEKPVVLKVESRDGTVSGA

| melting point | inhibition at 10 µM (CYP3A4) | SMILES |
| --- | --- | --- |
| 157 to 159 °C | > 50% | CN1C(=O)C2(COc3cc4c(cc32)OCCO4)c2c(OCc3ncccc3C(F)(F)F)cccc21 (stereo not drawn) [Example 16.58, 1′-methyl-4′-{[3-(trifluoromethyl)pyridin-2-yl]methoxy}-2,3-dihydrospiro[furo[2,3-g][1,4]benzodioxine-8,3′-indol]-2′(1′H)-one] |
| 192 to 194 °C | > 50% | CN1C(=O)C2(COc3cc4c(cc32)OCCO4)c2c(NC(=O)c3ccccc3)cccc21 (stereo not drawn) [Example 16.27, N-(1′-methyl-2′-oxo-1′,2,2′,3-tetrahydrospiro[furo[2,3-g][1,4]benzodioxine-8,3′-indol]-4′-yl)benzamide] |
| 246 to 249 °C | < 50% | CN1C(=O)C2(COc3cc4c(cc32)OCCO4)c2c(N3CCOCC3)cccc21 (stereo not drawn) [Example 16.17, 1′-methyl-4′-morpholin-4-yl-2,3-dihydrospiro[furo[2,3-g][1,4]benzodioxine-8,3′-indol]-2′(1′H)-one] |
| 195 to 196 °C | > 50% | O=C1N(Cc2cccc(C(F)(F)F)n2)c2ccccc2C12COc1cc3c(cc12)OCCO3 (stereo not drawn) [Example 5.9, 1′-{[6-(trifluoromethyl)pyridin-2-yl]methyl}-2,3-dihydrospiro[furo[2,3-g][1,4]benzodioxine-8,3′-indol]-2′(1′H)-one] |
| 172 to 173 °C | > 50% | CCCCCCNC(=O)c1cccc2c1C1(COc3cc4c(cc31)OCCO4)C(=O)N2C (stereo not drawn) [Example 16.45, N-hexyl-1′-methyl-2′-oxo-1′,2,2′,3-tetrahydrospiro[furo[2,3-g][1,4]benzodioxine-8,3′-indole]-4′-carboxamide] |
| 191 to 193 °C | < 50% | CCCCCNC(=O)c1cccc2c1C1(COc3cc4c(cc31)OCCO4)C(=O)N2C (stereo not drawn) [Example 16.42, 1′-methyl-2′-oxo-N-pentyl-1′,2,2′,3-tetrahydrospiro[furo[2,3-g][1,4]benzodioxine-8,3′-indole]-4′-carboxamide] |
| > 250 °C | < 50% | O=C1Nc2cccc(O)c2C12COc1cc3c(cc12)OCCO3 (stereo not drawn) [Example 16.51, 4′-hydroxy-2,3-dihydrospiro[furo[2,3-g][1,4]benzodioxine-8,3′-indol]-2′(1′H)-one] |
| 97 to 100 °C | < 50% | COCCNC(=O)c1cccc2c1C1(COc3cc4c(cc31)OCCO4)C(=O)N2C (stereo not drawn) [Example 16.43, N-(2-methoxyethyl)-1′-methyl-2′-oxo-1′,2,2′,3-tetrahydrospiro[furo[2,3-g][1,4]benzodioxine-8,3′-indole]-4′-carboxamide] |
| 233 to 234 °C (dec.) | > 50% | CN1C(=O)C2(COc3cc4c(cc32)OCCO4)c2c(-c3csc(N)n3)cccc21 (stereo not drawn) [Example 26, 4′-(2-amino-1,3-thiazol-4-yl)-1′-methyl-2,3-dihydrospiro[furo[2,3-g][1,4]benzodioxine-8,3′-indol]-2′(1′H)-one] |
| 175 to 177 °C | < 50% | CN1C(=O)C2(COc3cc4c(cc32)OCCO4)c2c(NC(=O)NC3CCCCC3)cccc21 (stereo not drawn) [Example 16.37, 1-cyclohexyl-3-(1′-methyl-2′-oxo-1′,2,2′,3-tetrahydrospiro[furo[2,3-g][1,4]benzodioxine-8,3′-indol]-4′-yl)urea] |
| 96 to 98 °C | < 50% | CN1C(=O)C2(COc3cc4c(cc32)OCCO4)c2c(NC(=O)C3CCCCC3)cccc21 (stereo not drawn) [Example 16.23, N-(1′-methyl-2′-oxo-1′,2,2′,3-tetrahydrospiro[furo[2,3-g][1,4]benzodioxine-8,3′-indol]-4′-yl)cyclohexanecarboxamide] |
| 226 to 228 °C | > 50% | CN1C(=O)[C@@]2(COc3cc4c(cc32)OCO4)c2c(Br)cccc21 [Example 16.63, (7R)-4′-bromo-1′-methylspiro[furo[2,3-f][1,3]benzodioxole-7,3′-indol]-2′(1′H)-one] |
| > 250 °C | < 50% | CN1C(=O)C2(COc3cc4c(cc32)OCCO4)c2c(C(=O)Nc3ccc(F)cc3)cccc21 (stereo not drawn) [Example 16.47, N-(4-fluorophenyl)-1′-methyl-2′-oxo-1′,2,2′,3-tetrahydrospiro[furo[2,3-g][1,4]benzodioxine-8,3′-indole]-4′-carboxamide] |
| 196 to 198 °C | < 50% | CN1C(=O)C2(COc3cc4c(cc32)OCCO4)c2c(NC(=O)C3CCCC3)cccc21 (stereo not drawn) [Example 16.24, N-(1′-methyl-2′-oxo-1′,2,2′,3-tetrahydrospiro[furo[2,3-g][1,4]benzodioxine-8,3′-indol]-4′-yl)cyclopentanecarboxamide] |
| 123 to 124 °C | > 50% | CCCCCCC(=O)Nc1cccc2c1C1(COc3cc4c(cc31)OCCO4)C(=O)N2C (stereo not drawn) [Example 16.33, N-(1′-methyl-2′-oxo-1′,2,2′,3-tetrahydrospiro[furo[2,3-g][1,4]benzodioxine-8,3′-indol]-4′-yl)heptanamide] |
| 109 to 110 °C | < 50% | COCCOCCOc1cccc2c1C1(COc3cc4c(cc31)OCCO4)C(=O)N2C (stereo not drawn) [Example 16.54, 4′-[2-(2-methoxyethoxy)ethoxy]-1′-methyl-2,3-dihydrospiro[furo[2,3-g][1,4]benzodioxine-8,3′-indol]-2′(1′H)-one] |
| 182 to 184 °C | > 50% | CN1C(=O)C2(COc3cc4c(cc32)OCO4)c2c(C3CCOC3)cccc21 (stereo not drawn) [Example 16.73, 1′-methyl-4′-(tetrahydrofuran-3-yl)spiro[furo[2,3-f][1,3]benzodioxole-7,3′-indol]-2′(1′H)-one] |
| 182 to 183 °C | < 50% | CCCCC(=O)Nc1cccc2c1C1(COc3cc4c(cc31)OCCO4)C(=O)N2C (stereo not drawn) [Example 16.30, N-(1′-methyl-2′-oxo-1′,2,2′,3-tetrahydrospiro[furo[2,3-g][1,4]benzodioxine-8,3′-indol]-4′-yl)pentanamide] |
| 297 to 299 °C | < 50% | CN1C(=O)C2(COc3cc4c(cc32)OCCO4)c2c(C(=O)O)cccc21 (stereo not drawn) [Example 11.77, 1′-methyl-2′-oxo-1′,2,2′,3-tetrahydrospiro[furo[2,3-g][1,4]benzodioxine-8,3′-indole]-4′-carboxylic acid] |
| 248 to 249 °C | < 50% | COc1ncc(CN2C(=O)C3(COc4cc5c(cc43)OCCO5)c3ccccc32)cn1 (stereo not drawn) [Example 5.14, 1′-[(2-methoxypyrimidin-5-yl)methyl]-2,3-dihydrospiro[furo[2,3-g][1,4]benzodioxine-8,3′-indol]-2′(1′H)-one] |
| 154 to 155 °C | > 50% | CCCCCCNC(=O)Nc1cccc2c1C1(COc3cc4c(cc31)OCCO4)C(=O)N2C (stereo not drawn) [Example 16.35, 1-hexyl-3-(1′-methyl-2′-oxo-1′,2,2′,3-tetrahydrospiro[furo[2,3-g][1,4]benzodioxine-8,3′-indol]-4′-yl)urea] |
| 139 to 140 °C | < 50% | CN1C(=O)C2(COc3cc4c(cc32)OCCO4)c2c(C(=O)NC3CCCCC3)cccc21 (stereo not drawn) [Example 16.38, N-cyclohexyl-1′-methyl-2′-oxo-1′,2,2′,3-tetrahydrospiro[furo[2,3-g][1,4]benzodioxine-8,3′-indole]-4′-carboxamide] |
| 220 to 222 °C | < 50% | CN1C(=O)C2(COc3cc4c(cc32)OCCO4)c2c(-c3cnn(C)c3)cccc21 (stereo not drawn) [Example 16.70, 1′-methyl-4′-(1-methyl-1H-pyrazol-4-yl)-2,3-dihydrospiro[furo[2,3-g][1,4]benzodioxine-8,3′-indol]-2′(1′H)-one] |
| > 250 °C | < 50% | CN1C(=O)C2(COc3cc4c(cc32)OCCO4)c2c(-c3cc(O)[nH]n3)cccc21 (stereo not drawn) [Example 27, 4′-(5-hydroxy-1H-pyrazol-3-yl)-1′-methyl-2,3-dihydrospiro[furo[2,3-g][1,4]benzodioxine-8,3′-indol]-2′(1′H)-one] |
| 151 to 153 °C | > 50% | CN1C(=O)C2(COc3cc4c(cc32)OCCO4)c2c(Oc3ccc(F)cc3)cccc21 (stereo not drawn) [Example 16.87, 4′-(4-fluorophenoxy)-1′-methyl-2,3-dihydrospiro[furo[2,3-g][1,4]benzodioxine-8,3′-indol]-2′(1′H)-one] |
| 201 to 202 °C | > 50% | CN1C(=O)C2(COc3cc4c(cc32)OCCO4)c2c(-c3cc[nH]n3)cccc21 (stereo not drawn) [Example 16.67, 1′-methyl-4′-(1H-pyrazol-3-yl)-2,3-dihydrospiro[furo[2,3-g][1,4]benzodioxine-8,3′-indol]-2′(1′H)-one] |
| 256 to 258 °C | < 50% | CN1C(=O)C2(COc3cc4c(cc32)OCCO4)c2c1cccc2N1CCCC1=O (stereo not drawn) [Example 16.16, 1′-methyl-4′-(2-oxopyrrolidin-1-yl)-2,3-dihydrospiro[furo[2,3-g][1,4]benzodioxine-8,3′-indol]-2′(1′H)-one] |
| 214 to 215 °C | < 50% | CN1C(=O)C2(COc3cc4c(cc32)OCCO4)c2c(C(=O)NCc3ccccn3)cccc21 (stereo not drawn) [Example 16.46, 1′-methyl-2′-oxo-N-(pyridin-2-ylmethyl)-1′,2,2′,3-tetrahydrospiro[furo[2,3-g][1,4]benzodioxine-8,3′-indole]-4′-carboxamide] |
| 181 to 183 °C | > 50% | CN1C(=O)C2(COc3cc4c(cc32)OCCO4)c2c(OCc3ccccn3)cccc21 (stereo not drawn) [Example 16.85, 1′-methyl-4-(pyridine-2-ylmethoxy)-2,3-dihydrospiro[furo[2,3-g][1,4]benzodioxine-8,3′-indol]-2′(1′H)-one] |
| 226 to 227 °C | > 50% | CN1C(=O)[C@]2(COc3cc4c(cc32)OCO4)c2c(Br)cccc21 [Example 16.64, (7S)-4′-bromo-1′-methylspiro[furo[2,3-f][1,3]benzodioxole-7,3′-indol]-2′(1′H)-one] |
